Common to all, as to type: cell-based
Test [1] concerns the target T1, IRAK-4 (Homo sapiens, UniProt Q9NWZ3).
T1 sequence (Q9NWZ3 1-460): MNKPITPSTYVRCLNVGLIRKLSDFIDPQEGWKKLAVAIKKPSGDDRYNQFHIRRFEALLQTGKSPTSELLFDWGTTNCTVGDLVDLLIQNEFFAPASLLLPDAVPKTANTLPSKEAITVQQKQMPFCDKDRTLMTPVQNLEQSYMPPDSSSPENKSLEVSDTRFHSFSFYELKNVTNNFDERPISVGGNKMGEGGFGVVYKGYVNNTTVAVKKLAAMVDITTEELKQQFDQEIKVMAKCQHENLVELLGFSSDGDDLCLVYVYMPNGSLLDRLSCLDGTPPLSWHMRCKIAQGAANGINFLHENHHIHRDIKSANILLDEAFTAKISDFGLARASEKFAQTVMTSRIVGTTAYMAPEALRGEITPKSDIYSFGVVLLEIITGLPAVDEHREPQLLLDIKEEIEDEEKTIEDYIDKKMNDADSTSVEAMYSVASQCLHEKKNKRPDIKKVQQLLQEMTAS
The test is described as follows: IRAK-4 ELISA, OCI-Ly10 degradation. Also on record: endogenous in cells. To be noted: treated overnight; for Dmax: OCI-Ly10, OCI-Ly10 cells; for DC50: OCI-Ly10 cells. As for the experimental part:
Reagents: Human IRAK-4 Matched Antibody Pair Kit (Abcam ab218182) and ELISA Accessory Pack (Abcam ab210905).
Cell Treatment and Lysis:
1. OCI-Ly10: 200,000 cells are seeded at 1×10^6/ml in 96-well U-bottom plates 200 ul per well, treated with compound the same day. Incubate overnight. 2. PBMC: 800,000 cells are seeded at 2×10^6/ml in 96-well U-bottom deep-well plates, 400 ul per well, treated with compound the same day. Incubate overnight.
Cell lysate is collected and analyzed by ELISA for IRAK-4 levels.

Test [2] concerns IL6. The test is described as follows: LPS stimulated IL6 inhibition assay in PBMC. To be noted: human PBMCs, LPS stimulation, compound overnight, IL6 by MSD after 24 hrs; for Dmax: read-out: LPS Stim IL6 inhibition Dmax; for IC50: read-out: LPS stim IL6 inhibition IC50. In outline:
(§1)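 Human PBMC at 2.0×10^6 cells/mL were pre-treated with compound overnight, then stimulated with IL-1β, LPS or R848, each at the donor-specific EC50 concentration. After 24 hrs, supernatant IL6 and/or IL8 was measured by MSD.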

Test [3] relates to IL6. As to the kind of experiment: R848 stimulated IL6 inhibition assay in PBMC. The settings on record: human PBMCs, R848 stimulation, compound overnight, IL6 by MSD after 24 hrs; for Dmax: Homo sapiens, 24 h, read-out: R848 stim IL6 inhibition Dmax; for IC50: read-out: R848 stim IL6 inhibition IC50. In outline:
as §1

The target in test [4] is T1, IRAK-4. As to the kind of experiment: IRAK-4 ELISA, PBMC degradation. On the set-up: endogenous in cells; host or cells: PBMC. To be noted: treated overnight. The procedure, abridged:
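Overnight compound treatment, started on the day of plating, of OCI-Ly10 (1×10^6/ml) and PBMC (2×10^6/ml) cultures. Lysates are collected and IRAK-4 content is read by sandwich ELISA.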

Some results are limits rather than exact numbers.

Consider `CC(C)Oc1cc2c(cc1NC(=O)c1cnn3cccnc13)CN(C1CCN(CCc3ccc4c(c3)C(=O)N(C3CCC(=O)NC3=O)C4=O)CC1)C2=O` (stereo not drawn) [Example 7], for which, at IRAK-4 [1], the Dmax fell in the range of 80 to 90% and the DC50 was in the range of 10 to 50 nM.
On IRAK-4 [1], `CC(C)Oc1cc2c(cc1NC(=O)c1cnn3cccnc13)CN(C1CCN(CCc3ccc4c(c3)CN(C3CCC(=O)NC3=O)C4=O)CC1)C2=O` (stereo not drawn) [Example 8] came in with a Dmax of at least 90% and a DC50 of under 10 nM.
For `CC(C)Oc1cc2c(cc1NC(=O)c1cnn3cccnc13)CN(C1CCN(Cc3ccc4c(c3)CN(C3CCC(=O)NC3=O)C4=O)CC1)C2=O` (stereo not drawn) [Example 10], the DC50 at IRAK-4 [1] is at least 100 nM.
Still for that read-out and setting: to `CC(C)Oc1cc2c(cc1NC(=O)c1cnn3cccnc13)CN(CC1CN(CCc3ccc4c(c3)CN(C3CCC(=O)NC3=O)C4=O)C1)C2=O` (stereo not drawn) [Example 26] belongs at least 100 nM.
On to `O=C1CCC(N2C(=O)c3ccc(N4CCC(CN5CCC(N6Cc7cc(NC(=O)c8cnn9cc(Cl)cnc89)c(N8CCOCC8)cc7C6=O)CC5)CC4)cc3C2=O)C(=O)N1` (stereo not drawn) [Example 33], for which, at IRAK-4 [1], the Dmax was 80 to 90% and the DC50 was 10 to 50 nM.
On to `O=C1CCC(N2Cc3cc(N4CC(CN5CCC(N6Cc7cc(NC(=O)c8cnn9cccnc89)c(N8CCOCC8)cc7C6=O)CC5)C4)ccc3C2=O)C(=O)N1` (stereo not drawn) [Example 34], for which, on IRAK-4 [1], the DC50 is at least 100 nM.
With `O=C1CCC(N2Cc3cc(N4CC(CN5CCC(N6Cc7cc(NC(=O)c8cnn9cccnc89)c(N8CCC(N9CCC9)CC8)cc7C6=O)CC5)C4)ccc3C2=O)C(=O)N1` (stereo not drawn) [Example 35], at IRAK-4 [1], the Dmax was at least 90% and the 50% degradation concentration (DC50) lay within 10 to 50 nM.
`O=C1CCC(N2C(=O)c3ccc(CCN4CCC(N5Cc6cc(NC(=O)c7cnn8cccnc78)c(N7CCOCC7)cc6C5=O)CC4)cc3C2=O)C(=O)N1` (stereo not drawn) [Example 37] showed a DC50 on IRAK-4 [1] of at least 100 nM.
In the case of `O=C1CCC(N2Cc3cc(N4CC(O[C@H]5CC[C@H](n6cc7cc(NC(=O)c8cnn9cccnc89)c(OCC8CC8)cc7n6)CC5)C4)ccc3C2=O)C(=O)N1` (stereo partly drawn) [Example 423, N-[6-(cyclopropylmethoxy)-2-[(1r,4r)-4-({1-[2-(2,6-dioxopiperidin-3-yl)-1-oxo-2,3-dihydro-1H-isoindol-5-yl]azetidin-3-yl}oxy)cyclohexyl]-2H-indazol-5-yl]pyrazolo[1,5-a]pyrimidine-3-carboxamide], in the test with IL6 [2] (Homo sapiens, PBMC, 24 h), the Dmax was 80 to 90% and the IC50 was 10 to 50 nM. For the same compound, in the test with IL6 [3] (PBMC), the Dmax was at least 90% and the IC50 lay within 10 to 50 nM. Also, at IRAK-4 [4], the DC50 was in the range of 1 to 5 nM; the Dmax is at least 90%; the “PBMC DC90” value is “B (B represents a DC90 value ≥10.0 nM and <25.0 nM)”.
In the case of `CC(C)Oc1cc2nn([C@H]3CC[C@H](OC4CN(c5ccc6c(c5)CN(C5CCC(=O)NC5=O)C6=O)C4)CC3)cc2cc1NC(=O)c1cnn2cccnc12` (stereo partly drawn) [Example 424], in the test with IL6 [2] (Homo sapiens, PBMC, 24 h), the Dmax is under 70% and the IC50 was under 10 nM. In the test on IL6 [3] (PBMC), the Dmax fell in the range of 80 to 90% and the IC50 was under 10 nM. In addition, on IRAK-4 [4], the DC50 lay in the range of 1 to 5 nM; the Dmax is 80 to 90%; the “PBMC DC90” value was “B (B represents a DC90 value ≥10.0 nM and <25.0 nM)”.
Consider `O=C1CCC(N2C(=O)c3ccc(N4CC[C@@H](O[C@H]5CC[C@@H](n6cc7cc(NC(=O)c8cnn9cccnc89)c(OCC8CC8)cc7n6)CC5)C4)cc3C2=O)C(=O)N1` (stereo partly drawn) [Example 425], for which, in the test on IL6 [2] (Homo sapiens, PBMC, 24 h), the Dmax is 70 to 80% and the IC50 fell in the range of 50 to 100 nM. Besides, in the test on IL6 [3] (PBMC), the Dmax lay within 70 to 80% and the IC50 was 50 to 100 nM. At IRAK-4 [4], the DC50 was at least 10 nM and the “PBMC DC90” value is reported as “D (D represents a DC90 value ≥50 nM)”.
On to `O=C1CCC(N2C(=O)c3ccc(N4CC[C@@H](O[C@H]5CC[C@H](n6cc7cc(NC(=O)c8cnn9cccnc89)c(OCC8CC8)cc7n6)CC5)C4)cc3C2=O)C(=O)N1` (stereo partly drawn) [Example 426], for which, in the test on IL6 [2] (Homo sapiens, PBMC, 24 h), the Dmax is under 70% and the 50% inhibitory concentration (IC50) fell in the range of 50 to 100 nM. For the same compound, in the test with IL6 [3] (PBMC), the Dmax was in the range of 80 to 90% and the 50% inhibitory concentration (IC50) was 50 to 100 nM. On IRAK-4 [4], the DC50 was at least 10 nM, the Dmax was at least 90% and the “PBMC DC90” value is “D (D represents a DC90 value ≥50 nM)”.
Consider `O=C1CCC(N2C(=O)c3ccc(N4CC[C@H](O[C@H]5CC[C@@H](n6cc7cc(NC(=O)c8cnn9cccnc89)c(OCC8CC8)cc7n6)CC5)C4)cc3C2=O)C(=O)N1` (stereo partly drawn) [Example 427], for which, in the test on IL6 [2] (Homo sapiens, PBMC, 24 h), the Dmax was 70 to 80% and the IC50 was under 10 nM. For the same compound, in the test on IL6 [3] (PBMC), the Dmax is under 70% and the IC50 was in the range of 10 to 50 nM. Moreover, at IRAK-4 [4], the DC50 was at least 10 nM and the “PBMC DC90” value is “D (D represents a DC90 value ≥50 nM)”.
Consider `O=C1CCC(N2C(=O)c3ccc(N4CC[C@H](O[C@H]5CC[C@@H](n6cc7cc(NC(=O)c8cnn9cccnc89)c(OCC8CC8)cc7n6)CC5)C4)cc3C2=O)C(=O)N1` (stereo partly drawn) [Example 428], for which, in the test with IL6 [2], the “LPS Stim IL6 inhibition Dmax” value was “D (D represents a Ymax value <70)” and the IC50 lay in the range of 10 to 50 nM. In the test with IL6 [3], the “R848 stim IL6 inhibition Dmax” value is reported as “A (A represents a Ymax value ≥90)” and the IC50 is 10 to 50 nM. For the same compound, on IRAK-4 [4], the DC50 was in the range of 1 to 5 nM; the Dmax is at least 90%; the “PBMC DC90” value is “B (B represents a DC90 value ≥10.0 nM and <25.0 nM)”.
Consider `O=C1CCC(N2C(=O)c3ccc(C4CCN(C[C@H]5CC[C@H](n6cc7cc(NC(=O)c8cnn9cccnc89)c(OCC8CC8)cc7n6)CC5)CC4)cc3C2=O)C(=O)N1` (stereo partly drawn) [Example 429, N-[6-(cyclopropylmethoxy)-2-[(1r,4r)-4-({4-[2-(2,6-dioxopiperidin-3-yl)-1,3-dioxo-2,3-dihydro-1H-isoindol-5-yl]piperidin-1-yl}methyl)cyclohexyl]-2H-indazol-5-yl]pyrazolo[1,5-a]pyrimidine-3-carboxamide], for which, in the test with IL6 [2] (Homo sapiens, PBMC, 24 h), the Dmax lay in the range of 70 to 80% and the IC50 was under 10 nM. Besides, in the test with IL6 [3] (PBMC), the Dmax is at least 90% and the IC50 was in the range of 10 to 50 nM. Also, on IRAK-4 [4], the DC50 is under 1 nM, the Dmax is at least 90% and the “PBMC DC90” value is reported as “A (A represents a DC90 value <10.0 nM)”.
With `O=C1CCC(N2C(=O)c3ccc(N4CCN(C[C@H]5CC[C@H](n6cc7cc(NC(=O)c8cnn9cccnc89)c(OCC(F)F)cc7n6)CC5)CC4)cc3C2=O)C(=O)N1` (stereo partly drawn) [Example 430], in the test with IL6 [2] (Homo sapiens, PBMC, 24 h), the Dmax fell in the range of 70 to 80% and the IC50 was 10 to 50 nM. Besides, in the test on IL6 [3] (PBMC), the Dmax is at least 90% and the IC50 lay in the range of 10 to 50 nM. Besides, at IRAK-4 [4], the DC50 fell in the range of 1 to 5 nM, the Dmax was at least 90% and the “PBMC DC90” value is listed as “A (A represents a DC90 value <10.0 nM)”.
On to `CC(C)Oc1cc2c(cc1NC(=O)c1cnn3cccnc13)CN([C@H]1CC[C@H](CN3CCN(c4ccc5c(c4)C(=O)N(C4CCC(=O)NC4=O)C5=O)CC3)CC1)C2=O` (stereo partly drawn) [Example 431], for which, in the test with IL6 [2] (Homo sapiens, PBMC, 24 h), the Dmax lay in the range of 70 to 80% and the IC50 lay in the range of 10 to 50 nM. Also, in the test with IL6 [3] (PBMC), the Dmax is at least 90% and the IC50 fell in the range of 10 to 50 nM. On IRAK-4 [4], the DC50 fell in the range of 1 to 5 nM, the Dmax was at least 90% and the “PBMC DC90” value is recorded as “A (A represents a DC90 value <10.0 nM)”.
With `CC(C)Oc1cc2c(cc1NC(=O)c1cnn3cccnc13)CN([C@H]1CC[C@H](CN3CCC(c4ccc5c(c4)C(=O)N(C4CCC(=O)NC4=O)C5=O)CC3)CC1)C2=O` (stereo partly drawn) [Example 432], in the test with IL6 [2] (Homo sapiens, PBMC, 24 h), the Dmax was in the range of 70 to 80% and the IC50 is 10 to 50 nM. In addition, in the test with IL6 [3] (PBMC), the Dmax was at least 90% and the IC50 lay in the range of 10 to 50 nM. In addition, at IRAK-4 [4], the DC50 lay in the range of 1 to 5 nM, the Dmax was at least 90% and the “PBMC DC90” value was “A (A represents a DC90 value <10.0 nM)”.
On to `O=C1CCC(N2Cc3ccc(N4CCN(C[C@H]5CC[C@H](n6cc7cc(NC(=O)c8cnn9cccnc89)c(OCC(F)F)cc7n6)CC5)CC4)cc3C2=O)C(=O)N1` (stereo partly drawn) [Example 433], for which, in the test with IL6 [2] (Homo sapiens, PBMC, 24 h), the Dmax was 80 to 90% and the IC50 was under 10 nM. Further, in the test on IL6 [3] (PBMC), the Dmax is at least 90% and the IC50 was under 10 nM. For the same compound, at IRAK-4 [4], the DC50 was under 1 nM, the Dmax is at least 90% and the “PBMC DC90” value is recorded as “A (A represents a DC90 value <10.0 nM)”.

The record behind these values is patent publication US20230099344A1, “COMPOUNDS AND METHODS FOR THE TARGETED DEGRADATION OF IRAK-4” (Arvinas Operations, Inc., priority 2021, published 2023).
